How the values were obtained:
[1] = Subacute toxicity assay; format: in vivo
Description: In acute toxicity assay, 18 female Kunming mice (Jinan Pengyue Experimental Animal Breeding Co., Ltd., Jinan, China), 18–22 g of weight, were used. The mice were randomly divided into three groups (n = 6), and treated with vehicle (0.5% CMC-Na solution) or 4o (300, 2000 mg/kg) by gavage once. The body weight, toxicity effect, general behavior and mortality of mice were monitored within 14 days after 4o treatment. In subacute toxicity assay, 10 male and 10 female Kunming mice (Jinan Pengyue Experimental Animal Breeding Co., Ltd., Jinan, China), 18–22 g of weight, were used. The mice were randomly divided into two groups with 5 males and 5 females, and were orally treated with vehicle (0.5% CMC-Na solution) or 4o (1000 mg/kg) once a day for 28 days. […]. After 28 days of treatment, the mice were anaesthetized with isoflurane and killed by decapitation. The heart, liver, spleen and kidney tissues were collected, and histologically analyzed by H&E staining.

[2] = test system: HCT116 cells; experiment: Hoechst 33258 staining; format: cell-based, human; details: HCT116, 4o 2.5, 5 and 10 μM, 24 h
Description: HCT116 cells were treated with different concentrations of 4o for 24 h, then were stained with Hoechst 33,258 (Beyotime Institute of Biotechnology, Shanghai, China). The nuclear morphology was observed under fluorescence microscope.

[3] = biological target: T1, recombinant human SHP2 protein (Homo sapiens, UniProt Q06124); experiment: SHP2 inhibition assay (pNPP substrate); format: biochemical; details: pNPP 4 mM, SHP2 240 nM, 37 °C, 30 min; means ± SD
T1 sequence (Q06124 1-593): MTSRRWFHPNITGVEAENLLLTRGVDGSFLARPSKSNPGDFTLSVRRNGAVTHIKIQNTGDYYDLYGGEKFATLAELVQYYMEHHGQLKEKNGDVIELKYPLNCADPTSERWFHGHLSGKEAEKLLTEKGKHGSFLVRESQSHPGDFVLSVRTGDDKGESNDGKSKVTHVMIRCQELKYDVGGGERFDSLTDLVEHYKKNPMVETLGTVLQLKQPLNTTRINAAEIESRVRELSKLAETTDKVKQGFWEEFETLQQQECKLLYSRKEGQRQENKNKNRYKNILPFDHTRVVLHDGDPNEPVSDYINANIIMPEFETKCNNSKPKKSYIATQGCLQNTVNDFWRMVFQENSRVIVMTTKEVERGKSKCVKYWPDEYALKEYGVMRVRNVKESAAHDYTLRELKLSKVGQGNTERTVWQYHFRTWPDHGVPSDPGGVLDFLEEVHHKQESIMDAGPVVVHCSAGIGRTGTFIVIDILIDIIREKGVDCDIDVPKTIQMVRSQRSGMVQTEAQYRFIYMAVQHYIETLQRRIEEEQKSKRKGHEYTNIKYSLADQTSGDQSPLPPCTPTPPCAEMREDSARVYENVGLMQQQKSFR
Description: pGEX-4T1 SHP2 WT (plasmid #8322) was purchased from Addgene. […] Then, 0.2 mM IPTG (Sangon Biotech, Shanghai, China) was added to induce the expression of protein at 30 °C for 4 h followed by centrifugation and cells collection. Cells were then broken by ultrasound in lysis buffer (20 mM Tris–HCl (pH 8.0), 100 mM KCl, 10% glycerol, 1 mM DTT, 0.5% Triton X-100) on ice. The supernatant was collected by centrifugation at 10,000× g for 15 min at 4 °C. The BeaverBeads GSH (Beaver Biosciences Inc., Guangzhou, China) washed by lysis buffer were incubated with the supernatant for 2 h at 4 °C. […] Then, the experiment was performed in a final volume of 100 μL containing 10 mM Tris–HCl (pH 7.5), 25 mM NaCl, 1 mM EDTA and 4 mM pNPP in a 96-well plate at 37 °C for 30 min. The amount of product p-nitrophenol was determined by the absorbance at 405 nm in a multimode reader (Berthold Technologies GmbH & Co.KG, Bad Wildbad, Baden Württemberg, Germany). The IC50 value was calculated by GraphPad Prism 7.0 software (GraphPad Inc, San Diego, CA, USA).

[4] = test system: HCT116 cells xenograft; experiment: Anti-tumor activity in vivo, HCT116 xenograft model; set-up: species or system BALB/c-nude mice
Description: Male BALB/c-nude mice (Jinan Pengyue Experimental Animal Breeding Co., Ltd., Jinan, China), 5 weeks of age, were used. The mice were housed in a specific pathogen-free room with temperature controlled (22 ± 2 °C), humidity (55 ± 10%) and a light/dark cycle of 12 h, providing sterile food and water. The HCT116 cells xenograft model was conducted, and 1 × 10^7 HCT116 cells were subcutaneously injected into the right armpit of mice. The tumor volume of mice was measured every three days to evaluate the tumor growth. When the tumor volume reached about 100 mm^3, the mice were randomly divided into four groups (n = 6), and treated with vehicle (0.5% CMC-Na solution) or 4o (25, 50 mg/kg) by gavage once a day for 13 consecutive days. A total of 25 mg/kg 5-FU was used as a positive control. The body weight of mice was measured every three days. The length (L) and width (W) of tumors were measured by electronic caliper every three days. The volume (V) was calculated as follows: V = (L × W^2)/2. When the tumor volume reached about 1000 mm^3, the tumors were excised. Immunohistochemical analysis were used to evaluate the related protein levels.

[5] = biological target: T2, SHP2 protein in HCT116 cells (Homo sapiens, UniProt Q06124); experiment: Cellular thermal shift assay (CETSA); format: cell-based; details: HCT116, 10 μM 4o, 3 h, versus DMSO
T2 construct: endogenous in cells; host or cells: HCT116
T2 sequence (Q06124 1-593): T1 sequence (Q06124 1-593)
Description: The assay was performed as described previously. In brief, HCT116 cells were treated with DMSO or 4o for 3 h. Cells were resuspended in PBS and divided into four aliquots, and then the cell lysates were heated at different temperatures by T100^TM Thermal Cycler (Bio-Rad, Hercules, CA, USA). The heated cells were subjected to repeated freezing and thawing with liquid nitrogen for three times followed by centrifugation at 20,000× g for 20 min at 4 °C. Finally, the supernatants were gathered and boiled for 10 min after adding the loading buffer. Protein levels were assessed by Western blotting.

SMILES: CCOc1ccc(Oc2ccc(C3=NN(C4=NC(=O)CS4)C(c4cc(O)c(O)c(Br)c4Br)C3)cc2)cc1 (stereo not drawn) [Compound 4o, 2-(5-(2,3-dibromo-4,5-dihydroxyphenyl)-3-(4-(4-ethoxyphenoxy)phenyl)-4,5-dihydro-1H-pyrazol-1-yl)thiazol-4(5H)-one]
- Body Weight (g) Day 0 ([1]; 1000 mg/kg orally once a day): 19.08 ± 0.95 g
- Body Weight (g) Day 7 ([1]; 1000 mg/kg orally once a day): 27.52 ± 1.77 g
- Body Weight (g) Day 14 ([1]; 1000 mg/kg orally once a day): 33.41 ± 3.49 g
- Body Weight (g) Day 21 ([1]; 1000 mg/kg orally once a day): 35.49 ± 4.52 g
- Body Weight (g) Day 28 ([1]; 1000 mg/kg orally once a day): 36.63 ± 4.84 g
- Mortality ([1]; 1000 mg/kg orally once a day, 28 days): 0/10
- H&E staining of heart, liver, spleen and kidney ([1]; 1000 mg/kg orally, 28 days): no significant change in the cell morphology
- Nuclear morphology (Hoechst 33,258 staining) [2]: chromatin was condensed and apoptosis occurred
- IC50 [3]: 1.56 ± 0.25 µM
- Tumor inhibition rate ([4]; 4o 25 mg/kg by gavage once daily, 13 days): 58.8%
- Tumor inhibition rate ([4]; 4o 50 mg/kg by gavage once daily, 13 days): 67.2%
- Effect on body weight of tumor-bearing mice ([4]; 4o 25, 50 mg/kg or 5-FU 25 mg/kg, 13 days): did not have any obvious effect on the body weight
- Expression of Ki67 and p-Erk in tumors (immunohistochemistry) ([4]; 4o 25, 50 mg/kg, 13 days): significantly decreased
- Tumor weight ([4]; 4o 25, 50 mg/kg, after 13 days, versus vehicle): much lighter
- Stability of SHP2 protein (CETSA) [5]: obviously increased
